Data published in patent publication US20260166159A1, “KRAS G12D DEGRADATION AGENT, AND PREPARATION METHOD AND USE THEREFOR” (LEADINGTAC PHARMACEUTICAL (SHAOXING) CO., LTD., priority 2022, published 2026).

Key:
[1] = system: KRAS G12D mutant human lung cancer cell A427; test: 3D cell proliferation inhibition assay, A427; format: cell-based; conditions: A-427, 168 h, A427, 7 days, CTG, numeric values
Method in brief: (§1)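 Cells seeded at 5×10^2 per well in low-adsorption plates with compounds at 10000–0.026 nM final (0.2% DMSO) and grown 7 days at 37 °C, 5% CO2. Viability by CellTiter-Glo luminescence after 60 min at room temperature; inhibition normalized to DMSO and medium-only controls, IC50 from nonlinear log-concentration fit.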

[2] = system: KRAS G12D mutant human pancreatic cancer cell Panc 04.03; test: 3D cell proliferation inhibition assay, Panc 04.03; format: cell-based; conditions: 168 h, Panc 04.03, 7 days, CTG, numeric values
Description: (§2) The inhibitory effects of the compounds on 3D cell proliferation were investigated on KRAS G12D mutant human lung cancer cell A427, KRAS G12D mutant human gastric cancer cell AGS, KRAS G12D mutant human metastatic pancreatic cancer cell AsPc-1, KRAS G12D mutant human pancreatic cancer cell Panc 04.03, KRAS G12D mutant human pancreatic cancer cell HPAC, KRAS G12V mutant human lung squamous cell carcinoma cell SW900, and KRAS WT human gastric cancer cell MKN1. The specific procedures were as follows:
(§3) 10 μL of each compound solution diluted in a gradient was added to corresponding wells of a 96-well low-adsorption microplate (PerkinElmer), so that the final concentrations of the test compounds in the reaction system were in a range of 10000-0.026 nM. The final concentration of DMSO was 0.2%. Then 90 µL of cells were correspondingly seeded into each well to achieve a cell density of 5×10^2 cells/well (the cell density of SW900 was 5×10^1 cells/well, and the cell density of MKN1 was 1×10^3 cells/well). In addition to test wells for the test compounds, both a DMSO control well and a medium control well were set, with the DMSO control well containing DMSO and cells and the medium well containing only a medium. After the sample loading, the 96-well low-adsorption microplate was incubated in an incubator at 37° C. with 5% carbon dioxide for 7 days. After 7 days, the microplate was taken out, and 100 μL of CTG reagent (Promega) was added to each well. The plate was incubated at room temperature for 60 min and read on a microplate reader EnVision by the chemiluminescence program. The inhibition rates of the compounds at each concentration were calculated using the formula for the percentage inhibition of cell proliferation: inhibition rate %=(mean value of DMSO control group−single concentration reading value of compound)/(mean value of DMSO control group−mean value of medium control group)×100. Then non-linear curve fittings for logarithmic concentration-inhibition rate were performed by GraphPad Prism 8, and the IC50 values of the compounds were obtained (Table 5).

[3] = system: KRAS G12D mutant human gastric cancer cell AGS; test: 3D cell proliferation inhibition assay, AGS; format: cell-based; conditions: 168 h, 7 days, CTG, numeric values
Method in brief: as §1

KRAS-G12D [4] = target: T1, KRAS-G12D (Homo sapiens, UniProt P01116, G12D); test: KRAS-G12D degradation assay (Western Blot), A-427 cells; format: cell-based; conditions: A427 cells, 24 h, numeric values
T1 construct: endogenous in cells; host or cells: A-427 (ATCC), AGS, AsPc-1, Panc 04.03
Method in brief: (§4)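 Each KRAS G12D mutant line (A-427, AGS, AsPc-1, Panc 04.03) was seeded at 5×10^5 cells/well and treated 24 h at 37 °C with 0.03–3000 nM compound (final DMSO 0.25%). KRAS in lysates was measured by Western blot, normalized to β-actin and compared with controls, giving DC50 and Dmax from curve fits.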

[5] = system: KRAS G12D mutant human pancreatic cancer cell HPAC; test: 3D cell proliferation inhibition assay, HPAC; format: cell-based; conditions: 168 h, 7 days, CTG
Description: as §2, §3

[6] = system: KRAS G12D mutant human metastatic pancreatic cancer cell AsPc-1; test: 3D cell proliferation inhibition assay, AsPc-1; format: cell-based; conditions: ASPC1, 168 h, AsPc-1, 7 days, CTG, numeric values
Description: as §2, §3

KRAS-G12D [7] = target: T1, KRAS-G12D; test: KRAS-G12D degradation assay (Western Blot), AsPc-1 cells; format: cell-based; conditions: for DC50: 24 h; for Dmax: ASPC1, 24 h
Method in brief: as §4

[8] = target: T2, Human KRAS G12D 6His-tagged (Homo sapiens, UniProt P01116, G12D); test: KRAS-G12D/GTP binding assay (HTRF); conditions: numeric values
T2 construct: purchased PerkinElmer
Method in brief: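 HTRF kit format: 6His-tagged KRAS G12D incubated with compound (final 0.02-5000 nM, 0.5% DMSO), anti-6His Eu cryptate antibody and GTP Red reagent for 1 h at 25° C. 665/620 nm ratio versus control gave inhibition rates; IC50 by nonlinear fit.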

T1 sequence (P01116 1-188 isoform P01116-2 G12D): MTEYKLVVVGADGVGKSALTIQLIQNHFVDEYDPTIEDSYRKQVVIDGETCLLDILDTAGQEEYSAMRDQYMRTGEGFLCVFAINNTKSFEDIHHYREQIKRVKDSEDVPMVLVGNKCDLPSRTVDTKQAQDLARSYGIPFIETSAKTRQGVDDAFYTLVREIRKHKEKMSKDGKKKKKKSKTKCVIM
T2 sequence (P01116 1-188 isoform P01116-2 G12D): as above

C#Cc1c(F)ccc2cc(O)cc(-c3ncc4c(N5CC6CCC(C5)N6)nc(OCC5(CN6CCN(CC7CCC8(CC7)CCN(C(=O)c7ccc(CC)c(N9CCC(=O)NC9=O)c7)CC8)CC6)CC5)nc4c3F)c12 [Example 243, 1-(5-(9-((4-((1-(((4-(3,8-diazabicyclo[3.2.1]octan-3-yl)-7-(8-ethynyl-7-fluoro-3-hydroxynaphthalen-1-yl)-8-fluoropyrido[4,3-d]pyrimidin-2-yl)oxy)methyl)cyclopropyl)methyl)piperazin-1-yl)methyl)-3-azaspiro[5.5]undecane-3-carbonyl)-2-ethylphenyl)dihydropyrimidine-2,4(1H,3H)-dione]
IC50 [1]: 121 nM | IC50 [2]: 21.7 nM | IC50 [3]: 2.16 nM | DC50 (KRAS-G12D [4]): 1.66 nM | Dmax (KRAS-G12D [4]; A-427): 92.9% | IC50 [5]: 0.61 nM | IC50 [6]: 2.34 nM

C#Cc1c(F)ccc2cc(O)cc(-c3ccc4c(N5CC6CCC(C5)N6)nc(OCC(C)CN5CCN(CC6CCC7(CC6)CCN(C(=O)c6ccc(C)c(N8CCC(=O)NC8=O)c6)CC7)CC5)nc4c3F)c12 (stereo not drawn) [Example 174, 1-(5-(9-((4-(3-((4-(3,8-diazabicyclo[3.2.1]octan-3-yl)-7-(8-ethynyl-7-fluoro-3-hydroxynaphthalen-1-yl)-8-fluoroquinazolin-2-yl)oxy)-2-methylpropyl)piperazin-1-yl)methyl)-3-azaspiro[5.5]undecane-3-carbonyl)-2-methylphenyl)dihydropyrimidine-2,4(1H,3H)-dione]
IC50 [1]: 64.2 nM | IC50 [2]: 31.3 nM | IC50 [3]: 19.4 nM | DC50 (KRAS-G12D [7]): 13.6 nM | Dmax (KRAS-G12D [7]): 100% | IC50 [8]: 5.19 nM | IC50 [5]: 1.78 nM | IC50 [6]: 62.5 nM

C#Cc1c(F)ccc2cc(O)cc(-c3ncc4c(N5CC6CCC(C5)N6)nc(OCC5(CN6CCN(CC7CCC8(CCN(C(=O)c9ccc(C)c(N%10CCC(=O)NC%10=O)c9)CC8)CO7)CC6)CC5)nc4c3F)c12 (stereo not drawn) [Example 106, 1-(5-(3-((4-((1-(((4-(3,8-diazabicyclo[3.2.1]octan-3-yl)-7-(8-ethynyl-7-fluoro-3-hydroxynaphthalen-1-yl)-8-fluoropyrido[4,3-d]pyrimidin-2-yl)oxy)methyl)cyclopropyl)methyl)piperazin-1-yl)methyl)-2-oxa-9-azaspiro[5.5]undecane-9-carbonyl)-2-methylphenyl)dihydropyrimidine-2,4(1H,3H)-dione]
IC50 [2]: 63.5 nM | IC50 [3]: 13.4 nM | DC50 (KRAS-G12D [7]): 10.5 nM | Dmax (KRAS-G12D [7]): 99.5% | IC50 [5]: 152 nM | IC50 [6]: 30.8 nM

C#Cc1c(F)ccc2cc(O)cc(-c3ncc4c(N5CC6CCC(C5)N6)nc(OC[C@H](C)CN5CCN(CC6CCC7(CC6)CCN(C(=O)c6ccc(Cl)c(N8CCC(=O)NC8=O)c6)CC7)CC5)nc4c3F)c12 [Example 102, 1-(5-(9-((4-((R)-3-((4-(3,8-diazabicyclo[3.2.1]octan-3-yl)-7-(8-ethynyl-7-fluoro-3-hydroxynaphthalen-1-yl)-8-fluoropyrido[4,3-d]pyrimidin-2-yl)oxy)-2-methylpropyl)piperazin-1-yl)methyl)-3-azaspiro[5.5]undecane-3-carbonyl)-2-chlorophenyl)dihydropyrimidine-2,4(1H,3H)-dione]
IC50 [2]: 15.2 nM | IC50 [3]: 6.56 nM | DC50 (KRAS-G12D [7]): 8.93 nM | Dmax (KRAS-G12D [7]): 100% | IC50 [5]: 13.5 nM | IC50 [6]: 3.69 nM

C#Cc1c(F)ccc2cc(O)cc(-c3ncc4c(N5CC6CCC(C5)N6)nc(OC[C@H](C)CN5CCN(CC6CCC7(CC6)CCN(C(=O)c6ccc(C)c(N8CCC(=O)NC8=O)c6)CC7)CC5)nc4c3F)c12 [Example 100, 1-(5-(9-((4-((R)-3-((4-(3,8-diazabicyclo[3.2.1]octan-3-yl)-7-(8-ethynyl-7-fluoro-3-hydroxynaphthalen-1-yl)-8-fluoropyrido[4,3-d]pyrimidin-2-yl)oxy)-2-methylpropyl)piperazin-1-yl)methyl)-3-azaspiro[5.5]undecane-3-carbonyl)-2-methylphenyl)dihydropyrimidine-2,4(1H,3H)-dione]
IC50 [2]: 23.8 nM | IC50 [3]: 3.63 nM | DC50 (KRAS-G12D [7]): 2.54 nM | Dmax (KRAS-G12D [7]): 100% | IC50 [5]: 2.43 nM | IC50 [6]: 2.02 nM

C#Cc1c(F)ccc2cc(O)cc(-c3ncc4c(N5CC6CCC(C5)N6)nc(OC[C@H](C)CN5CCN(CC6CCC7(CC6)CCN(C(=O)c6cc(N8CCC(=O)NC8=O)c(C)cc6F)CC7)CC5)nc4c3F)c12 [Example 173, 1-(5-(9-((4-((R)-3-((4-(3,8-diazabicyclo[3.2.1]octan-3-yl)-7-(8-ethynyl-7-fluoro-3-hydroxynaphthalen-1-yl)-8-fluoropyrido[4,3-d]pyrimidin-2-yl)oxy)-2-methylpropyl)piperazin-1-yl)methyl)-3-azaspiro[5.5]undecane-3-carbonyl)-4-fluoro-2-methylphenyl)dihydropyrimidine-2,4(1H,3H)-dione]
IC50 [2]: 5.88 nM | IC50 [3]: 4.22 nM | DC50 (KRAS-G12D [7]): 2.42 nM | Dmax (KRAS-G12D [7]): 99% | IC50 [5]: 3.8 nM | IC50 [6]: 1.51 nM

C#Cc1c(F)ccc2cc(O)cc(-c3ncc4c(N5CC6CCC(C5)N6)nc(OC[C@@H](CN5CCN(CC6CCC7(CC6)CCN(C(=O)c6ccc(OC)c(N8CCC(=O)NC8=O)c6)CC7)CC5)C(C)C)nc4c3F)c12 [Example 252, 1-(5-(9-((4-((R)-2-(((4-(3,8-diazabicyclo[3.2.1]octan-3-yl)-7-(8-ethynyl-7-fluoro-3-hydroxynaphthalen-1-yl)-8-fluoropyrido[4,3-d]pyrimidin-2-yl)oxy)methyl)-3-methylbutyl)piperazin-1-yl)methyl)-3-azaspiro[5.5]undecane-3-carbonyl)-2-methoxyphenyl)dihydropyrimidine-2,4(1H,3H)-dione]
IC50 [2]: 51 nM | IC50 [3]: 31.7 nM | DC50 (KRAS-G12D [7]): 42.3 nM | Dmax (KRAS-G12D [7]): 100% | IC50 [5]: 18.9 nM | IC50 [6]: 21 nM
